These compounds were tested against T1, recombinant human baculovirus-expressed GST-tagged FASN (Homo sapiens, UniProt P49327) (assay: FASN enzyme activity assay: fluorescence-based detection of CoA with CPM). Conditions: 5 nM FASN, 150 μM NADPH, 10 μM acetyl-CoA, 25 μM malonyl-CoA, 90 minutes incubation.
T1 construct: GST; host or cells: baculovirus expression system (insect cells implied)
Type: biochemical
Summary of the method: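 GST-tagged human FASN (5 nM, baculovirus-expressed) in 50 mM HEPES pH 7.5 with 150 μM NADPH, 10 μM acetyl-CoA and 25 μM malonyl-CoA, 0.5% DMSO, started with malonyl-CoA and run 90 min. CoA was detected with CPM (30 min; ex 390/em 530 nm). IC50 came from sigmoidal variable-slope fits of % inhibition.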

T1 sequence (P49327 whole entry): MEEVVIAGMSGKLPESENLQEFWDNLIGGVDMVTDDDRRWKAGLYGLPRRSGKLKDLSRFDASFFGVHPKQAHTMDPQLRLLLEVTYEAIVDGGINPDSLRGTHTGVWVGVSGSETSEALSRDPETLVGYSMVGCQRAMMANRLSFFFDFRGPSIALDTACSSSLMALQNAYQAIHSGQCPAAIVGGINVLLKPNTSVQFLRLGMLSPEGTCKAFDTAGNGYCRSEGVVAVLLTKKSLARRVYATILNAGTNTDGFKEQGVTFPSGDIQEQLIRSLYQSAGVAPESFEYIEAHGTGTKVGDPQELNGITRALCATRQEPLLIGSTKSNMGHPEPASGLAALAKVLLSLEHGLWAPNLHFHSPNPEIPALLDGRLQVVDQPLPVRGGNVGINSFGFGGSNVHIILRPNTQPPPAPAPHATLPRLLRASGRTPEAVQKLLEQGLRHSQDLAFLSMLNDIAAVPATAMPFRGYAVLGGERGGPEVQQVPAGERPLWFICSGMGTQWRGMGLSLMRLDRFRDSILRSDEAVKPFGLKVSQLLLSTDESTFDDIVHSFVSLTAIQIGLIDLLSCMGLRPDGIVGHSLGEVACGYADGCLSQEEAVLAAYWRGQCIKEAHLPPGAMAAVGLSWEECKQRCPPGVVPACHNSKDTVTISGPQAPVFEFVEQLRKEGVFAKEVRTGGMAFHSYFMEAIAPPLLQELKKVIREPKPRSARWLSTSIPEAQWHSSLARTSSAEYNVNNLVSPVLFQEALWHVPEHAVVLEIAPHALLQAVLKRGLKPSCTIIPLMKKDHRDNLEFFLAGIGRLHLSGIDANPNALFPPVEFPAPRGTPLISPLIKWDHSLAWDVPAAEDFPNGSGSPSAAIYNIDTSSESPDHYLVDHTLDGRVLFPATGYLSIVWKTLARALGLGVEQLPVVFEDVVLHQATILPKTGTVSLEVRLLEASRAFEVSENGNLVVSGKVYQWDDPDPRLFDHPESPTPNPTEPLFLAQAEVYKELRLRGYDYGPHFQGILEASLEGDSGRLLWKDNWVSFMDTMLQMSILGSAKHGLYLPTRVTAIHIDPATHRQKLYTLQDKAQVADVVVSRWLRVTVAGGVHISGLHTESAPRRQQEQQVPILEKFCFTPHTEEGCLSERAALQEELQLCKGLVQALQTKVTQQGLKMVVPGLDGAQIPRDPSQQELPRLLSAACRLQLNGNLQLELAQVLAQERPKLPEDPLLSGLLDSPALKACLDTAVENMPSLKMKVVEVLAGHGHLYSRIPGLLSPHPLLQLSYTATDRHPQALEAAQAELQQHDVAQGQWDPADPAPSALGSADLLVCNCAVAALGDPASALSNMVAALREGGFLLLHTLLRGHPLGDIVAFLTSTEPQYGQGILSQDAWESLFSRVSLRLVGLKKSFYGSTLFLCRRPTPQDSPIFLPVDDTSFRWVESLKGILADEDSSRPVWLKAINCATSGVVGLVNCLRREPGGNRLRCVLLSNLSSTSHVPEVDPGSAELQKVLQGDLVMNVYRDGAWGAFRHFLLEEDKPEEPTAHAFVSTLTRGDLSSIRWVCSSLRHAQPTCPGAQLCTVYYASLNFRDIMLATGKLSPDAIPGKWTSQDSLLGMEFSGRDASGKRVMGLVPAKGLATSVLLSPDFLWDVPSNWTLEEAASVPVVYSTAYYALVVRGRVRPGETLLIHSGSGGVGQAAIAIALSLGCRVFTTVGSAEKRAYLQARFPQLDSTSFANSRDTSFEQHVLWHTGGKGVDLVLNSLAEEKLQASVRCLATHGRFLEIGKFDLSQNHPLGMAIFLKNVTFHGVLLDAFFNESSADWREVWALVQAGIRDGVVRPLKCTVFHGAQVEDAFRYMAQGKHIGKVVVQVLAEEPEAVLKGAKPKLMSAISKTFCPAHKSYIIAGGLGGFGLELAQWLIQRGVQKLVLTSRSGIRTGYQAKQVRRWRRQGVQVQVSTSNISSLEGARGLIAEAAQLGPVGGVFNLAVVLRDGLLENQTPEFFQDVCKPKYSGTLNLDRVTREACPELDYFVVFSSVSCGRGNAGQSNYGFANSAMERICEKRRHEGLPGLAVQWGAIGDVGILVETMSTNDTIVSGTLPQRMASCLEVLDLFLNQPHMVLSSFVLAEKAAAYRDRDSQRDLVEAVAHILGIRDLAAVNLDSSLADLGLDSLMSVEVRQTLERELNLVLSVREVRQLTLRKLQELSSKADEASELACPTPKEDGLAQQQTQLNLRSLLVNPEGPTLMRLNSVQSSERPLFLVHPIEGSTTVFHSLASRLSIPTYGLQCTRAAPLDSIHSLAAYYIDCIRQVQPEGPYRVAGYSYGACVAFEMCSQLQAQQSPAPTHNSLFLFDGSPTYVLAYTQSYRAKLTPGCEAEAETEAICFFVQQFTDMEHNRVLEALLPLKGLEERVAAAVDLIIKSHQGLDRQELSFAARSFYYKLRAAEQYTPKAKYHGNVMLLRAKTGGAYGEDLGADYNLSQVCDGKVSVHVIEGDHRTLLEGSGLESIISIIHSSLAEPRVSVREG

Row | SMILES | IC50
1 | Cc1nccc2cc(-c3ccc(C(OCCN4CCCC4)C4CCN(C(=O)[C@H]5CCCO5)CC4)cc3)ccc12 (stereo partly drawn) [Example 90, {4-[[4-(1-Methylisoquinolin-6-yl)phenyl]-(2-pyrrolidin-1-yl-ethoxy)-methyl]-piperidin-1-yl}-(R)-tetrahydrofuran-2-yl-methanone] | 0.1 to 0.999 µM
2 | CCC(=O)N1CCC(C#N)(Cc2ccc(-c3ccc4cccnc4c3OC)cc2)CC1 [Example 92, 4-[4-(8-methoxyquinolin-7-yl)-benzyl]-1-propionylpiperidine-4-carbonitrile] | 0.001 to 0.099 µM
3 | Cc1c(-c2ccc(CC3CCN(C(=O)[C@H]4CCCO4)CC3)cc2)ccc2nccn12 [Example 93, {4-[4-(5-Methyl-imidazo[1,2-a]pyridin-6-yl)-benzyl]-piperidin-1-yl}-(R)-tetrahydrofuran-2-yl-methanone] | 0.001 to 0.099 µM
4 | CCC(=O)N1CCC(Cc2ccc(-c3ccc4nccn4c3C)cc2)CC1 [Example 94, 1-{4-[4-(5-Methylimidazo[1,2-a]pyridin-6-yl)-benzyl]-piperidin-1-yl}-propan-1-one] | 0.1 to 0.999 µM
5 | Cc1c(-c2ccc(CC3CCN(C(=O)C4CC4)CC3)cc2)ccc2nccn12 [Example 95, Cyclopropyl-{4-[4-(5-methylimidazo[1,2-a]pyridin-6-yl)-benzyl]-piperidin-1-yl}-methanone] | 0.1 to 0.999 µM
6 | Cc1c(-c2ccc(CC3CCN(C(=O)C4(O)CC4)CC3)cc2)ccc2nccn12 [Example 96, (1-Hydroxycyclopropyl)-{4-[4-(5-methylimidazo[1,2-a]pyridin-6-yl)-benzyl]-piperidin-1-yl}-methanone] | 0.001 to 0.099 µM
7 | Cc1c(-c2ccc(CC3(F)CCN(C(=O)[C@H]4CCCO4)CC3)cc2)ccc2nccn12 [Example 97, (R)-(4-fluoro-4-(4-(5-methylimidazo[1,2-a]pyridin-6-yl)benzyl)piperidin-1-yl)(tetrahydrofuran-2-yl)methanone] | 0.001 to 0.099 µM
8 | O=C(N1CCC(C2(c3ccc(-c4ccc5ncccc5c4)cc3)OCCO2)CC1)C(F)(F)F [Example 98, 2,2,2-Trifluoro-1-{4-[2-(4-quinolin-6-yl-phenyl)-1,3-dioxolan-2-yl]-piperidin-1-yl}-ethanone] | 1 to 10 µM
9 | O=C(C1CC1)N1CCC(C2(c3ccc(-c4ccc5ncccc5c4)cc3)OCCO2)CC1 [Example 99, Cyclopropyl-{4-[2-(4-quinolin-6-yl-phenyl)-1,3-dioxolan-2-yl]-piperidin-1-yl}-methanone] | 1 to 10 µM
10 | CN(C)S(=O)(=O)N1CCC(C2(c3ccc(-c4ccc5ncccc5c4)cc3)OCCO2)CC1 [Example 100, 4-[2-(4-Quinolin-6-yl-phenyl)-1,3-dioxolan-2-yl]-piperidine-1-sulfonic acid dimethylamide] | 1 to 10 µM
11 | CCOC(=O)N1CCC(C2(c3ccc(-c4ccc5ncccc5c4)cc3)OCCO2)CC1 [Example 101, 4-[2-(4-Quinolin-6-yl-phenyl)-1,3-dioxolan-2-yl]-piperidine-1-carboxylic Acid Ethyl Ester] | 1 to 10 µM
12 | CC(C)C(=O)N1CCC(C2(c3ccc(-c4ccc5ncccc5c4)cc3)OCCO2)CC1 [Example 102, 2-Methyl-1-{4-[2-(4-quinolin-6-yl-phenyl)-1,3-dioxolan-2-yl]-piperidin-1-yl}-propan-1-one] | 1 to 10 µM
13 | CN(C)C(=O)N1CCC(C2(c3ccc(-c4ccc5ncccc5c4)cc3)OCCO2)CC1 [Example 103, 4-[2-(4-Quinolin-6-yl-phenyl)-1,3-dioxolan-2-yl]-piperidine-1-carboxylic acid dimethylamide] | 1 to 10 µM
14 | CCC(=O)N1CCC(C2(c3ccc(-c4ccc5ncccc5c4)cc3)OCCO2)CC1 [Example 104, 1-{4-[2-(4-Quinolin-6-yl-phenyl)-1,3-dioxolan-2-yl]-piperidin-1-yl}-propan-1-one] | 1 to 10 µM
15 | CCCC(=O)N1CCC(C2(c3ccc(-c4ccc5ncccc5c4)cc3)OCCO2)CC1 [Example 105, 1-{4-[2-(4-Quinolin-6-yl-phenyl)-1,3-dioxolan-2-yl]-piperidin-1-yl}-butan-1-one] | 1 to 10 µM
16 | CC(=O)N1CCC(C2(c3ccc(-c4ccc5ncccc5c4)cc3)OCCO2)CC1 [Example 106, 1-{4-[2-(4-Quinolin-6-yl-phenyl)-1,3-dioxolan-2-yl]-piperidin-1-yl}-ethanone] | 1 to 10 µM
17 | O=C(NC1CCCC1)N1CCC(C2(c3ccc(-c4ccc5ncccc5c4)cc3)OCCO2)CC1 [Example 107, 4-[2-(4-Quinolin-6-yl-phenyl)-1,3-dioxolan-2-yl]-piperidine-1-carboxylic Acid Cyclopentylamide] | 1 to 10 µM
18 | c1cnc2ccc(-c3ccc(C4(C5CCN(C6CCOCC6)CC5)OCCO4)cc3)cc2c1 [Example 108, 6-(4-{2-[1-(Tetrahydropyran-4-yl)-piperidin-4-yl]-1,3-dioxolan-2-yl}-phenyl)-quinoline] | 1 to 10 µM
19 | CC(C)C(=O)N1CCC(C(=O)c2ccc(-c3ccc4ncccc4c3)cc2)CC1 [Example 109, 2-Methyl-1-[4-(4-quinolin-6-yl-benzoyl)-piperidin-1-yl]-propan-1-one] | 1 to 10 µM
20 | CC(C)C(=O)N1CCC(C(O)c2ccc(-c3ccc4ncccc4c3)cc2)CC1 (stereo not drawn) [Example 110, 1-{4-[Hydroxy-(4-quinolin-6-yl-phenyl)-methyl]-piperidin-1-yl}-2-methyl-propan-1-one] | 1 to 10 µM

Row | SMILES | IC50
21 | CC(C)C(=O)N1CCC(C2(c3ccc(-c4ccc5cccnc5c4)cc3)OCCO2)CC1 [Example 111, 2-Methyl-1-{4-[2-(4-quinolin-7-yl-phenyl)-1,3-dioxolan-2-yl]-piperidin-1-yl}-propan-1-one] | 1 to 10 µM
22 | O=C(C1CC1)N1CCC(C2(c3ccc(-c4ccc5cccnc5c4)cc3)OCCO2)CC1 [Example 112, Cyclopropyl-{4-[2-(4-quinolin-7-yl-phenyl)-1,3-dioxolan-2-yl]-piperidin-1-yl}-methanone] | 1 to 10 µM
23 | CCCC(=O)N1CCC(C2(c3ccc(-c4ccc5cccnc5c4)cc3)OCCO2)CC1 [Example 113, 1-{4-[2-(4-Quinolin-7-yl-phenyl)-1,3-dioxolan-2-yl]-piperidin-1-yl}-butan-1-one] | 1 to 10 µM
24 | CCC(=O)N1CCC(C2(c3ccc(-c4ccc5cccnc5c4)cc3)OCCO2)CC1 [Example 114, 1-{4-[2-(4-Quinolin-7-yl-phenyl)-1,3-dioxolan-2-yl]-piperidin-1-yl}-propan-1-one] | 0.1 to 0.999 µM
25 | CC(=O)N1CCC(C2(c3ccc(-c4ccc5ccncc5c4)cc3)OCCO2)CC1 [Example 115, 1-{4-[2-(4-Isoquinolin-7-yl-phenyl)-1,3-dioxolan-2-yl]-piperidin-1-yl}-ethanone] | 1 to 10 µM
26 | CCC(=O)N1CCC(C2(c3ccc(-c4ccc5ccncc5c4)cc3)OCCO2)CC1 [Example 116, 1-{4-[2-(4-Isoquinolin-7-yl-phenyl)-1,3-dioxolan-2-yl]-piperidin-1-yl}-propan-1-one] | 1 to 10 µM
27 | CC(C)C(=O)N1CCC(C2(c3ccc(-c4ccc5ccncc5c4)cc3)OCCO2)CC1 [Example 117, 1-{4-[2-(4-Isoquinolin-7-yl-phenyl)-1,3-dioxolan-2-yl]-piperidin-1-yl}-2-methyl-propan-1-one] | 1 to 10 µM
28 | CC(C)C(=O)N1CCC(C2(c3ccc(-c4ccc5cccnc5c4)cc3)OCCCO2)CC1 [Example 121, 2-Methyl-1-{4-[2-(4-quinolin-7-yl-phenyl)-1,3-dioxinan-2-yl]-piperidin-1-yl}-propan-1-one] | 1 to 10 µM
29 | O=C(C1CC1)N1CCC(C2(c3ccc(-c4ccc5cccnc5c4)cc3)OCCCO2)CC1 [Example 122, Cyclopropyl-{4-[2-(4-quinolin-7-yl-phenyl)-1,3-dioxinan-2-yl]-piperidin-1-yl}-methanone] | 1 to 10 µM
30 | CCC(=O)N1CCC(C2(c3ccc(-c4ccc5cccnc5c4)cc3)OCCCO2)CC1 [Example 123, 1-{4-[2-(4-Quinolin-7-yl-phenyl)-1,3-dioxinan-2-yl]-piperidin-1-yl}-propan-1-one] | 1 to 10 µM
31 | CCC(=O)N1CCC(C(=O)c2ccc(-c3ccc4cccnc4c3)cc2)CC1 [Example 124, 1-[4-(4-Quinolin-7-yl-benzoyl)-piperidin-1-yl]-propan-1-one] | 1 to 10 µM
32 | CCC(=O)N1CCC(C(O)c2ccc(-c3ccc4cccnc4c3)cc2)CC1 (stereo not drawn) [Example 125, 1-{4-[Hydroxy-(4-quinolin-7-yl-phenyl)-methyl]-piperidin-1-yl}-propan-1-one] | 0.001 to 0.099 µM
33 | CCC(=O)N1CCC(C(C)(O)c2ccc(-c3ccc4cccnc4c3)cc2)CC1 (stereo not drawn) [Example 126, 1-{4-[1-Hydroxy-1-(4-quinolin-7-yl-phenyl)-ethyl]-piperidin-1-yl}-propan-1-one] | 0.1 to 0.999 µM
34 | CCC(=O)N1CCC(C(=O)c2ccc(-c3ccc4cnccc4c3)cc2F)CC1 [Example 127, 1-[4-(2-Fluoro-4-isoquinolin-6-yl-benzoyl)-piperidin-1-yl]-propan-1-one] | 0.001 to 0.099 µM
35 | CCC(=O)N1CCC(C(O)c2ccc(-c3ccc4cnccc4c3)cc2F)CC1 (stereo not drawn) [Example 128, 1-{4-[(2-Fluoro-4-isoquinolin-6-yl-phenyl)-hydroxy-methyl]-piperidin-1-yl}-propan-1-one] | 0.001 to 0.099 µM
36 | CCC(=O)N1CCC(C(=O)c2ccc(-c3ccc4cnccc4c3)cc2)CC1 [Example 129, 1-[4-(4-Isoquinolin-6-yl-benzoyl)-piperidin-1-yl]-propan-1-one] | 1 to 10 µM
37 | CCC(=O)N1CCC(C(O)c2ccc(-c3ccc4cnccc4c3)cc2)CC1 (stereo not drawn) [Example 130, 1-{4-[Hydroxy-(4-isoquinolin-6-yl-phenyl)-methyl]-piperidin-1-yl}-propan-1-one] | 0.001 to 0.099 µM
38 | CCC(=O)N1CCC(C(C)(O)c2ccc(-c3ccc4cnccc4c3)cc2)CC1 (stereo not drawn) [Example 131, 1-{4-[1-Hydroxy-1-(4-isoquinolin-6-yl-phenyl)-ethyl]-piperidin-1-yl}-propan-1-one] | 0.1 to 0.999 µM
39 | CCC(=O)N1CCC(C(C)(O)c2ccc(-c3ccc4cnccc4c3)cc2F)CC1 (stereo not drawn) [Example 132, 1-{4-[1-(2-Fluoro-4-isoquinolin-6-yl-phenyl)-1-hydroxy-ethyl]-piperidin-1-yl}-propan-1-one] | 0.001 to 0.099 µM
